Assay results as given in patent publication US10202420B2, “Methods and compositions for treatment of cartilage and disc tissue pathologies” (THE ROYAL INSTITUTION FOR ADVANCEMENT OF LEARNING/MCGILL …, priority 2013, dated 2019).
Where no end group is shown, it is not given here.

Tests used:
[1] = LIVE/DEAD cell viability in alginate beads; format: cell-based; details: bovine, bovine intervertebral disc NP and AF cells in alginate beads, 1 μg/ml, 18 days, alginate scaffolds, read-out: cellular viability
Description: Coccygeal IVDs from healthy 20-24 month old steers were obtained from a local abattoir at 2-3 hours after slaughter. The IVDs were separated from their adjacent vertebral bodies, and the cells were isolated from the NP and AF regions by sequential digestion with 0.2% Pronase followed by 0.125% Collagenase digestion as previously described. After isolation, the NP and AF cells were either immediately embedded in alginate beads or were plated in 6 well plates for protein extraction.
After isolation the NP and AF cells were resuspended in 1.2% alginate (dissolved in 0.15 M NaCl) at a concentration of 2 million cells per ml. Alginate was chosen to assess the effect on matrix production in the absence of extensive cell proliferation. Droplets of cell suspension were released through an 18-gauge needle into 102 mM calcium chloride solution and were let to polymerize for 10 minutes. Alginate beads were subsequently stabilized for 7 days in culture media (Dulbecco's Modified Eagle Medium high glucose supplemented with 10% fetal bovine serum and antibiotics). […]
Cell viability was assessed at day 18 on the alginate beads using a live/dead fluorescence assay (Live/Dead®, Invitrogen) and visualized by fluorescent microscopy.

[2] = system: human NP cells; assay: Stability of Link N in the presence of cells (monolayer, mass spectrometry); format: in vitro ADME; details: Link N 1 μg/mL, 37° C.
Description: (§1) To evaluate the stability of Link N, freshly isolated human cells from NP and AF regions were plated in 6 well culture plates at a density of 250,000 cells per well. Cells were cultured at 37° C., 5% CO2 in 3 mL DMEM, containing 4.5 g/L glucose and supplemented with 10% FCS, 25 mmol/L HEPES, 50 μg/mL gentamicin sulphate, 0.25 μg/mL fungizone, 50 μg/mL L-ascorbate, and 2 mmol/L GlutaMAX. The wells were left for 2 days before exposure to Link-N (1 μg/mL). 200 μL medium was collected at fixed time points (0 h, 6 h, 12 h, 24 h, 36 h, and 48 h). Stability of the peptide was also studied at the same time points in the absence of cells.
25 μL medium samples, collected from the monolayer cultures described above or peptide digests were purified on C18 spin columns according to standard protocols (Harvard Apparatus, Holliston, Mass.). Eluted peptides were reconstituted in 20 μL, 2% acetonitrile and 0.2% formic acid (FA). Samples were injected and quantified using a triple quadropole mass spectrometer TSQ Vantage™ (Thermo Scientific, Waltham, Mass.) equipped with an easy nano-LC system (Thermo Scientific). The mass spectrometer was operated in SRM mode, with both Q1 and Q3 settings at unit resolution (FWHM 0.7 Da). A spray voltage of +1,700 V was used with a heated ion transfer setting of 270° C. for desolvation. Data were acquired using the Xcalibur software (version 2.1). […]

[3] = target: T1, HTRA1 (Homo sapiens, UniProt Q92743); assay: Proteinase treatment of Link N, peak area by mass spectrometry; format: in vitro ADME; details: 30 minutes, 2 and 24 hours
T1 construct: purchased Thermo Scientific
Description: (§2) 300 μg Link N 1-16 was incubated for 30 minutes, 2 and 24 hours in the presence of 10 different proteinases. The buffer used for MMPs 3, 7, 12, 13, ADAMTS 4,5, HTRA1 was composed of 50 mM Tris-HCl, 200 mM NaCl, 5 mM CaCl2, 0.01% Rapigest. For cathepsins K, B, and L, the digest buffer was composed of 2.5 mM DTT, 0.15% chondroitin sulfate A, 0.1 M sodium acetate, pH 5.5.
(§3) 25 μL medium samples, collected from the monolayer cultures described above or peptide digests were purified on C18 spin columns according to standard protocols (Harvard Apparatus, Holliston, Mass.). Eluted peptides were reconstituted in 20 μL, 2% acetonitrile and 0.2% formic acid (FA). Samples were injected and quantified using a triple quadropole mass spectrometer TSQ Vantage™ (Thermo Scientific, Waltham, Mass.) equipped with an easy nano-LC system (Thermo Scientific). The mass spectrometer was operated in SRM mode, with both Q1 and Q3 settings at unit resolution (FWHM 0.7 Da). A spray voltage of +1,700 V was used with a heated ion transfer setting of 270° C. for desolvation. Data were acquired using the Xcalibur software (version 2.1). Mobile phases used were A (0.1% FA in water) and B (100% acetonitrile in 0.1% FA). Separation was performed on 10 μm tip, 75 μm×15 cm capillary columns (PicoTip™ emitter, New Objective, Woburn, Mass.) packed with Reprosil-Pur C18-AQ resin (3 μm, Dr. Maich GmbH, Switzerland). 1 μL sample was injected and separation was performed at a flow rate of 300 nL/min using a gradient of 97% mobile phase A for 5 min, 85% A for 8 min, 65% A for 42 min, and 19% A for 45-50 min.

[4] = target: T2, MMP 12 (Homo sapiens, UniProt P39900); assay: as above; format: in vitro ADME; details: 30 minutes, 2 and 24 hours
T2 construct: purchased R&D Systems
Description: as §2, §3

[5] = target: T3, ADAMTS 4 (Homo sapiens, UniProt O75173); assay: as above; format: in vitro ADME; details: 30 minutes, 2 and 24 hours
T3 construct: purchased R&D Systems
Description: as §2, §3

[6] = target: cathepsin L (Homo sapiens, UniProt P07711); assay: as above; format: in vitro ADME; details: 30 minutes, 2 and 24 hours
Description: as §2, §3

[7] = target: T4, ADAMTS 5 (Homo sapiens, UniProt Q9UNA0); assay: as above; format: in vitro ADME; details: 30 minutes, 2 and 24 hours
T4 construct: purchased R&D Systems
Description: as §2, §3

[8] = target: T5, MMP 13 (Homo sapiens, UniProt P45452); assay: as above; format: in vitro ADME; details: 30 minutes, 2 and 24 hours
T5 construct: purchased R&D Systems
Description: as §2, §3

[9] = target: cathepsin B (Homo sapiens, UniProt P07858); assay: as above; format: in vitro ADME; details: 30 minutes, 2 and 24 hours
Description: as §2, §3

[10] = target: T6, cathepsin K (Homo sapiens, UniProt P43235); assay: as above; format: in vitro ADME
T6 sequence (P43235 115-329): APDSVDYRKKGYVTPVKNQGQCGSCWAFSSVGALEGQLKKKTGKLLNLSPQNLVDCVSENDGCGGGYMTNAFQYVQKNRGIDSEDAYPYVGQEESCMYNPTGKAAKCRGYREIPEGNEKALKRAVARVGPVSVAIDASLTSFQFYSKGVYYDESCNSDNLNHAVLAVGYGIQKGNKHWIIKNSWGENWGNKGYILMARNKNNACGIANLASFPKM
Description: as §2, §3

[11] = target: T7, MMP 3 (Homo sapiens, UniProt P08254); assay: as above; format: in vitro ADME; details: 30 minutes, 2 and 24 hours
T7 construct: purchased R&D Systems
Description: as §2, §3

[12] = target: T8, MMP 7 (Homo sapiens, UniProt P09237); assay: as above; format: in vitro ADME; details: 30 minutes, 2 and 24 hours
T8 construct: purchased R&D Systems
Description: as §2, §3

[13] = system: human AF cells; assay: Stability and processing of Link N in the presence of cells (monolayer, mass spectrometry); format: in vitro ADME; details: for peak area intensity of intact Link N in the presence of AF cells: human AF cells in monolayer
Description: as §1
as §3, with “min. […]” for “min.”

[14] = cited from earlier work
[15] = system: bovine nucleus pulposus (NP) cells; assay: Proteoglycan synthesis by 35SO4 incorporation, cells in alginate beads; format: cell-based; details: 48 h, 16-mer peptides 1 μg/mL, 8-mer peptides 0.5 μg/mL, vs medium alone
Description: (§4) Human and bovine IVDs were separated from the adjoining vertebral body and divided into NP and AF for bovine IVDs and NP and inner annulus fibrosus (iAF) for human IVDs. Tissue from the human outer annulus fibrosus (oAF) was not used for cell isolation in this study. Cells were enzymatically isolated from each region as previously described (63). Briefly, NP and AF tissues were dissected into approximately 2-mm thick pieces, washed twice in PBS containing 50 μg/mL gentamicin, […] and 0.25 μg/mL fungizone, then digested with 0.2% pronase for 1 h, followed by collagenase type IA at 0.01% for NP and 0.04% for AF tissue for 4 h in serum free DMEM.
(§5) To compare the metabolic response to the various Link N peptides, freshly isolated human and bovine cells from NP and AF regions were embedded in 1.2% alginate beads, as previously described (65). Cells in alginate beads were cultured at 37° C., 5% CO2 in DMEM, containing 4.5 g/L glucose and supplemented with 10% FCS, 25 mmol/L HEPES, 50 μg/mL gentamicin sulphate, 0.25 μg/mL fungizone, 50 μg/mL L-ascorbate, and 2 mmol/L GlutaMAX. The beads were stabilized for 7 days and cell viability was assessed by Live/Dead® assay prior to further treatment. 5 beads per well were then cultured in 48 well plates in the presence of equimolar concentrations of either Link N (1 μg/mL), R-Link N (1 μg/mL), S-Link N (1 μg/mL), Link N 1-8 (0.5 μg/mL) or Link N 9-16 (0.5 μg/mL) in 0.5 mL DMEM. 25 μCi/mL ^35SO4 was added to the medium to allow assessment of proteoglycan synthesis (66). In addition, beads were exposed for 48 h to IL-1β (10 ng/mL) alone, or to a combination of peptides and IL-1β (51). At the end of the culture period, medium was collected and dialyzed exhaustively against miliQ water at […] (Spectra/Por® 3), followed by cold chase with 1M MgSO4 for 2 h to remove any remaining unincorporated ^35SO4. The ^35SO4 incorporation was measured using a beta scintillation counter (Beckman Coulter LS6500, Beckman Coulter, Mississauga, Canada).

[16] = system: bovine annulus fibrosus (AF) cells; assay: as above; format: cell-based; details: 48 h, 16-mer peptides 1 μg/mL, 8-mer peptides 0.5 μg/mL, vs medium alone
Description: as §4, §5

[17] = system: human inner annulus fibrosus (iAF) cells; assay: as above; format: cell-based; details: human AF (iAF) cells, 48 h; for proteoglycan synthesis (35SO4 incorporation): 16-mer peptides 1 μg/mL, 8-mer peptides 0.5 μg/mL, vs medium alone
Description: (§6) Human thoracolumbar spines were retrieved through the Transplant Quebec organ donation program. Discs were obtained from 7 donors, 1 male and 6 female, with a mean age of 29.6 years and an age range of 16 to 47 years (Table 1). Donors having had recent chemotherapy, radiation therapies to the spine, or significant long-standing paralysis were excluded from the study. Spine retrieval was performed within 8 h of death. Discs with calcification and loss of disc height were not included in the study. All procedures were approved by the institutional review board of the Montreal General Hospital.
as §4, §5

[18] = system: human nucleus pulposus (NP) cells; assay: as above; format: cell-based; details: 48 h; for proteoglycan synthesis (35SO4 incorporation): 16-mer peptides 1 μg/mL, 8-mer peptides 0.5 μg/mL, vs medium alone
Description: as §6, §4, §5

[19] = system: cells from degenerated disc tissue; details: Wang et al.; 100 ng/mL; monolayer-expanded cells in 3D culture; cited from earlier work
[20] = IL-1β 10 ng/mL, vs IL-1-containing medium

T3 sequence (O75173 213-837): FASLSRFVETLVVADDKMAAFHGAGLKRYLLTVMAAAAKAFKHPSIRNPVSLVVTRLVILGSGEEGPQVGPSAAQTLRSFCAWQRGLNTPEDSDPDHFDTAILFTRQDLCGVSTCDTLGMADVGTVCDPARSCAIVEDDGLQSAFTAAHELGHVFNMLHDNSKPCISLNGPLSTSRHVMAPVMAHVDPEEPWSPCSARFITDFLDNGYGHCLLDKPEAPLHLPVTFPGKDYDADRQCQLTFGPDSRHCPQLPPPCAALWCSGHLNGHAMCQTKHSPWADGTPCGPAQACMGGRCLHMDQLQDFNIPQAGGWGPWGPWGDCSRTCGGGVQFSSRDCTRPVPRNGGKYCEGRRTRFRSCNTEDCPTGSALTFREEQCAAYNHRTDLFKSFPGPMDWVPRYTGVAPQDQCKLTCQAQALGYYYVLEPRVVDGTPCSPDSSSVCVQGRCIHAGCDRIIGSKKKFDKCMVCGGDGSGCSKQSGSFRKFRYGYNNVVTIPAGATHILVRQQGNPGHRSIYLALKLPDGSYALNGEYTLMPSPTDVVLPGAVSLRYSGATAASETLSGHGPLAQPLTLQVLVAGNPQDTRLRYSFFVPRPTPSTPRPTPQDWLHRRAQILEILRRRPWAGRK
Sequence of cathepsin L (P07711 114-333): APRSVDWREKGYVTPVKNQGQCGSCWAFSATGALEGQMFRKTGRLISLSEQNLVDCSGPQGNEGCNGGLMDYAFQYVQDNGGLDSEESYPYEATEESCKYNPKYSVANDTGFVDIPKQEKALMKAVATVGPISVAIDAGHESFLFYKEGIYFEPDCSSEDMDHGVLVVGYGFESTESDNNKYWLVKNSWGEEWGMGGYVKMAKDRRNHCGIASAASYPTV
T7 sequence (P08254 100-477): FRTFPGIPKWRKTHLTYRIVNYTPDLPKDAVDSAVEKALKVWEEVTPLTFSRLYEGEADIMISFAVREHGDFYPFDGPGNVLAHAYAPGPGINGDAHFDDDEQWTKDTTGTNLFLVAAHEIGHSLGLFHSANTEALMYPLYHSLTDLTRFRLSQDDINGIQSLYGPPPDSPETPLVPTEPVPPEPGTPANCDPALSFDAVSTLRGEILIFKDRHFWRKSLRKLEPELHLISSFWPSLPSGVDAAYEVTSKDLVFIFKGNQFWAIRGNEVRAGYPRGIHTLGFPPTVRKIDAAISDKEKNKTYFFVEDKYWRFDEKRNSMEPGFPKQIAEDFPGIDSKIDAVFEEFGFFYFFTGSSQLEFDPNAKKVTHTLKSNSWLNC
T8 sequence (P09237 95-267): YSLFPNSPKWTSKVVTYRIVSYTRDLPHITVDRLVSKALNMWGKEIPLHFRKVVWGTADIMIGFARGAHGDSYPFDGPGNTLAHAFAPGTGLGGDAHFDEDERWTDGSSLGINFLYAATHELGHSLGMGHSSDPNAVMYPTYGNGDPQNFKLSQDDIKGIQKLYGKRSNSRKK
T4 sequence (Q9UNA0 262-930): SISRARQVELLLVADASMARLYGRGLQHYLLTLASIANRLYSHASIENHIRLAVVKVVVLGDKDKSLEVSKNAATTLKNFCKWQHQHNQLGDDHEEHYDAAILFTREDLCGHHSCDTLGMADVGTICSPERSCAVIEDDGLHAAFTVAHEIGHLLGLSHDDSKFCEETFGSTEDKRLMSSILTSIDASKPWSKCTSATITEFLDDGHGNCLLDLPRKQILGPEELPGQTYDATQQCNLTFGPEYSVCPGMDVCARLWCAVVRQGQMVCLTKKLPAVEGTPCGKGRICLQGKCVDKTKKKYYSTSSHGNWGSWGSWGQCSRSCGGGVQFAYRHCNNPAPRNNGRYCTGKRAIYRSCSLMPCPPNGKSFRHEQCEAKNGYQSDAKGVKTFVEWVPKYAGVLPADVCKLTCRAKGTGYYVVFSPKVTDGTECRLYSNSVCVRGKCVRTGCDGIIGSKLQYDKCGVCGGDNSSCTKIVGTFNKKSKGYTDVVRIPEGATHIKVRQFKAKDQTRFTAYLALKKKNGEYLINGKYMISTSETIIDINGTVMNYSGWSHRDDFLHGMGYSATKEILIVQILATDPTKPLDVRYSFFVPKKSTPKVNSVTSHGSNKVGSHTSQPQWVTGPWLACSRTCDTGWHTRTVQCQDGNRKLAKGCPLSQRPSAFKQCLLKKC
T2 sequence (P39900 106-470): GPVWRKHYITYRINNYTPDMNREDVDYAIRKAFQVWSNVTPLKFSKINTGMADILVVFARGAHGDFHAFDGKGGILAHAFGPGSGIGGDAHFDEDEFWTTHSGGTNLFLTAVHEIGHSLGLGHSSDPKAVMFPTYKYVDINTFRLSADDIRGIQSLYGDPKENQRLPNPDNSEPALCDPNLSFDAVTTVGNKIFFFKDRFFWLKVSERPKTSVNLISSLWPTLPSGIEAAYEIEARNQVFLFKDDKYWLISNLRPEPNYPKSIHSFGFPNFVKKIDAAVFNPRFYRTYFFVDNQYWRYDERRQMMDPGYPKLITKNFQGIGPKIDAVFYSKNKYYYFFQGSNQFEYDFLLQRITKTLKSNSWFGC
T1 sequence (Q92743 23-480): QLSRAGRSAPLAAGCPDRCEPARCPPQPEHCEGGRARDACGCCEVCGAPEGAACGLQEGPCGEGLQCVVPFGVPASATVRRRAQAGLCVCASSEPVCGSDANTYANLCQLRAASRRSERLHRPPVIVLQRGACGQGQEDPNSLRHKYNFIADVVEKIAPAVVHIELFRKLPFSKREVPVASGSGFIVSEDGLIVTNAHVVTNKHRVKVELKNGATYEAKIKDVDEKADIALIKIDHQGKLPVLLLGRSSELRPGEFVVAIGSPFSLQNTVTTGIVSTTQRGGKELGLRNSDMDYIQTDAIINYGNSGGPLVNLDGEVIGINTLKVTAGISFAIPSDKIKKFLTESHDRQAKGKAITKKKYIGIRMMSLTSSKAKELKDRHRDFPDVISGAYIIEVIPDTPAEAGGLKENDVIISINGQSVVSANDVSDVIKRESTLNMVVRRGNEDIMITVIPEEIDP

DHHSDNYTVDHDRVIH [BLN, DHHSDNYTVDHDRVIH]
viability at 432 h, 1 µg/mL [1]: > 98%

DHLSDNYTLDHDRAIH [Link N, DHLSDNYTLDHDRAIH]
time the peptide was stable in the presence of NP cells [2]: at least 48 h
peak area intensity of the 1922 Da Link 1-16 peptide [3]: un-affected
peak area intensity of the 1922 Da Link 1-16 peptide [4]: un-affected
peak area intensity of the 1922 Da Link 1-16 peptide [5]: un-affected
peak area intensity of the 1922 Da Link 1-16 peptide [6]: un-affected
peak area intensity of the 1922 Da Link 1-16 peptide [7]: un-affected
peak area intensity of the 1922 Da Link 1-16 peptide [8]: un-affected
peak area intensity of the 1922 Da Link 1-16 peptide [9]: un-affected
peak area intensity of the 1922 Da Link 1-16 peptide ([10]; 2 and 24 hours): hardly detectable
peak area intensity of the 1922 Da Link 1-16 peptide ([10]; 30 minutes): significantly diminished
cleavage of Link N by cathepsin K (MRM of Link 1-8 and Link 9-16) ([10]; 2 hours): single cleavage between amino acids 8 and 9
peak area intensity of the 1922 Da Link 1-16 peptide [11]: un-affected
peak area intensity of the 1922 Da Link 1-16 peptide [12]: un-affected
processed product of Link N identified by tandem mass spectrometry ([13]; AF cell culture medium, 964.4 Da peptide): a peptide spanning residues 1 to 8 was generated
peak area intensity of intact Link N in the presence of AF cells ([13]; after 48 h): only trace amounts were present
peak area intensity of intact Link N in the presence of AF cells ([13]; by 6 h): decrease
retention of Link N in the human disc [14]: only lost slowly through the endplate and not AF
viability at 432 h, 1 µg/mL [1]: > 98%

DLNRAHLHIDYHTDSD [S-Link N, scrambled Link N]
proteoglycan synthesis (35SO4 incorporation) [15]: no effect was observed
proteoglycan synthesis (35SO4 incorporation) [16]: no effect was observed
proteoglycan synthesis (35SO4 incorporation) [17]: no response
proteoglycan synthesis (35SO4 incorporation) [18]: no response

HIARDHDLTYNDSLHD [R-Link N, reverse Link N]
proteoglycan synthesis (35SO4 incorporation) [15]: no effect was observed
proteoglycan synthesis (35SO4 incorporation) [16]: no effect was observed
proteoglycan synthesis (35SO4 incorporation) [17]: no response
proteoglycan synthesis (35SO4 incorporation) [18]: no response

LDHDRAIH [Link N 9-16, second 8 peptide residues of Link N]
proteoglycan synthesis (35SO4 incorporation) [15]: no effect was seen
proteoglycan synthesis (35SO4 incorporation) [16]: no effect was seen
proteoglycan synthesis (35SO4 incorporation) [17]: no response
proteoglycan synthesis (35SO4 incorporation) in the presence of IL-1β [17, 20]: no response
proteoglycan synthesis (35SO4 incorporation) [18]: no response
proteoglycan synthesis (35SO4 incorporation) in the presence of IL-1β [18, 20]: no response

residue 1-12 peptide: Link N-derived peptide spanning amino acid residues 1-12, tested by Wang et al. (DHLSDNYTLDHD; UniProt P10915 16-27, looked up, fragment)
stimulatory effect (cell-associated sulphated GAG) [19]: inactive
